# Assay results published in PMC6934184, “Selective DNA-PKcs inhibition extends the therapeutic index of localized radiotherapy and chemotherapy” (The Journal of Clinical Investigation, 2019).
# Molecular target: T1, TXK (Homo sapiens, UniProt P42681)
# T1 construct: purchased Thermo Fisher Scientific (Life Technologies) SelectScreen
# Assay: SelectScreen Z'LYTE
# Format: biochemical
# How it was run: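 SelectScreen broad panel; activity (Z'LYTE, Adapta) plus binding formats. ATP: Km app for CSF1R Z'LYTE; 10 for CAMK1 Adapta. Readout = % per kinase.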
# T1 sequence (P42681 whole entry): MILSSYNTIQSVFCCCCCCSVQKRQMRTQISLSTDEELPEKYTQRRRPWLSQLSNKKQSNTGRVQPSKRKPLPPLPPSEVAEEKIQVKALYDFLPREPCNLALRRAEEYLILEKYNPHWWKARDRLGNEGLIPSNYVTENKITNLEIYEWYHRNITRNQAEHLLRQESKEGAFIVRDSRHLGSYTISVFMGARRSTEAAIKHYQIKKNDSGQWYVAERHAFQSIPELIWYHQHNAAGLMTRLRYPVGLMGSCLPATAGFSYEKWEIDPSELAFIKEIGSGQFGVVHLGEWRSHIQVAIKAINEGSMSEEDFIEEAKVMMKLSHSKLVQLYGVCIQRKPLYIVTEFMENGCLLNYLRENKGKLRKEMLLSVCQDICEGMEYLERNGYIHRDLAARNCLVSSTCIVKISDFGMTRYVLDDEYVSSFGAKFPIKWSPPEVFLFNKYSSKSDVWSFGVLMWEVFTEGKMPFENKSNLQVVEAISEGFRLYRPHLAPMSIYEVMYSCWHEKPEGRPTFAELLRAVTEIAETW
smiles,measurement,value
CN(C(=O)CN1CCOCC1)c1ccc2sc3c(-c4cccc5c(=O)cc(N6CC7CCC(C6)O7)oc45)cccc3c2c1 [NU5455],inhibition at 1 µM,-2.9%
